Laboratory results taken from US11364390B2, “Apparatus for treating pathological cells” (priority 2017, dated 2022).

Assays:
[1] = tested on: Nephroblastoma G401; assay: Tumor growth inhibition in vivo, G401 nephroblastoma model in nude mice; details: cisplatin 20 mg/kg three times a week, irradiation about 90 minutes a day, P<0.05, FIG. 9
From the text: Example 7: G401 nephroblastoma model was established in nude mice and the animals were randomly divided into 4 groups with 8 mice in each group. […] Tumor models were established: Male nude mice were infants aged 3-4 weeks old. Nephroblastoma G401 was inoculated into the axilla and the number was 5×10^6/volume. The volume was 200 microliters. After one week of inoculation, the tumor could be touched. The animals were randomized groups, control group, irradiation group, cisplatin group, combined groups, treated separately. […] The control animals were placed in the animals irradiated with electromagnetic field-free coils for 90 minutes every day, and injected intraperitoneally with the same volume of physiology Saline; all animals were sacrificed 3 days after the neck, the eyeball to take whole blood, EDTA anticoagulant, after centrifugation to take the biochemical indicators of blood plasma, remove underarm growth tumor, weighed tumor weight, tissue cryopreservation. Statistical analysis: Each group of 8 animals, the results were mean±standard deviation, the results of T test, P<0.05 as a significant difference in indicators.

[2] = tested on: neuroblastoma cells CHLA255; assay: Cell viability assay (live cell count) on cultured neuroblastoma cells CHLA255; format: cell-based; details: cisplatin 500 nM once a day, combination with electromagnetic field 2 hours a day, FIG. 6
Protocol: Cell Lines and Methods of Culture: Neuroblastoma cells, CHLA255, which are adherent cells, are grown in 37° C. incubator with 10% fetal calf serum in McCoy's medium containing 5% carbon dioxide and saturated water vapor. Cell viability assay: Neuroblastoma cells, CHLA255, were seeded in 6-well plates at a density of 1×10^5 cells/well. […] Statistical Analysis: Each irradiation conditions repeated three times, each three holes, the results were mean±standard error, the results do T test, with P<0.05 as a significant difference in indicators.

[3] = tested on: nephroblastoma cells G401; assay: Cell viability assay (live cell count) on cultured nephroblastoma cells G401; format: cell-based; details: cisplatin 500 nM once a day, combination with electromagnetic field 2 hours a day, FIG. 5
Protocol: Cell Lines and Methods of Culture: Nephroblastoma cells G401, adherent cells, were cultured in McCoy's medium with 10% fetal bovine serum at 37° C. in an incubator containing 5% carbon dioxide and saturated water vapor. Cell viability assay: […] cells were seeded into 6-well plates at a density of 1×10^5 cells/well. […] Statistical Analysis: Each irradiation conditions repeated three times, each three holes, the results were mean±standard error, the results do T test, with P<0.05 as a significant difference in indicators.

N.N.[Cl][Pt][Cl] [cisplatin]
tumor weight compared with the control group [1]: no significant difference
cell inhibition rate [2]: increase
cell proliferation (number of cells) [2]: slow proliferation
cell inhibition rate [3]: increase
cell proliferation (number of cells) [3]: slow proliferation
